Among the data in patent US20240327392A1, “HETEROCYCLOALKYL-SUBSTITUTED POLYHETEROAZOLE DERIVATIVES AS MEDICAMENTS FOR TREATING AND/OR PREVENTING RS VIRUS INFECTIONS” (ALBIUS SCIENCES ALPHA PRIVATE LIMITED, priority 2021, published 2024) are IC50 values, retold here.

SMILES strings stand for the structures.

The subject of the first experiment is human RS virus A2 strain. The experiment in a line: In vitro test for anti-RS virus proliferation inhibitory activity (quantitative RT-PCR of RS virus RNA copy number in infected Vero cells). Type of experiment: cell-based. The following applies: 72 h; Vero cells infected with human RS virus A2 strain, 3 days of incubation, RS virus N gene RNA copy number by quantitative RT-PCR; read-out: Anti-RS virus Activity. The procedure: A mixture of Vero cells (3.4×10^5 cells/mL) and human RS virus A2 strain (1.7×10^4 TCID50/mL) (EMEM medium supplemented with 10% FCS) was added to a 96-well plate at 50 μL/well, and the 10% FCS-supplemented EMEM medium adjusted to the desired final concentration of the compounds to be tested was added at 50 μL/well, followed by incubating the plate at 37° C. in the presence of 5% CO2 at 37° C. After 3 days of incubation, the supernatant was removed, the cells were washed with PBS(−), and the cell lysis buffer supplied with the SingleShot (registered trademark) Cell Lysis Kit (Bio-Rad) was added dropwise at 50 μL/well to lysis the cells thereby providing the cell lysate.
Human RS virus RNA copy number in the cell lysate was determined by quantitative RT-PCR using iTaq Universal SYBR Green One-Step Kit (Bio-Rad). Specifically, primers targeting human RS virus N gene (Rameix-Welti et al, Nat Commun5: 5104, 2014. doi: 10.1038/ncomms6104) was used to prepare the reaction solution according to the instructions provided with the kit, and a 96-well PikoReal Real-Time PCR System (TCR0096, Thermo Fisher Scientific) was used to detect PCR reaction and signal assay.
The copy number was calculated by the relative method using the comparative Ct method using compound-free virus-infected cells as controls.
As for `CC(C)CS(=O)(=O)N1CCCC[C@H]1c1nc(CCCc2ccccc2)no1` [Compound 2A, 3-(3-phenylpropyl)-5-[(2S)-1-isobutylsulfonylpiperidin-2-yl]-1,2,4-oxadiazole], the IC50 was in the range of 10 to 50 µM.

Take `O=S(=O)(C1CCCCC1)N1CCCC[C@H]1c1nc(CCCc2ccccc2)no1` [Compound 2B, 3-(3-phenylpropyl)-5-[(2S)-1-cyclohexylsulfonylpiperidin-2-yl]-1,2,4-oxadiazole]: the IC50 was < 10 µM.

For `CS(=O)(=O)N1CCCC[C@H]1c1nc(CCCc2ccccc2)no1` [Compound 2C, 3-(3-phenylpropyl)-5-[(2S)-1-methanesulfonylpiperidin-2-yl]-1,2,4-oxadiazole], the IC50 lay in the range of 10 to 50 µM.

For `O=S(=O)(c1ccccc1)N1CCCC[C@H]1c1nc(CCCc2ccccc2)no1` [Compound 2D, 3-(3-phenylpropyl)-5-[(2S)-1-benzenesulfonylpiperidin-2-yl]-1,2,4-oxadiazole], the IC50 was < 10 µM.

In the case of `O=S(=O)(Cc1ccccc1)N1CCCC[C@H]1c1nc(CCCc2ccccc2)no1` [Compound 2E, 3-(3-phenylpropyl)-5-[(2S)-1-benzylsulfonylpiperidin-2-yl]-1,2,4-oxadiazole], the IC50 was < 10 µM.

Consider `CC(C)(C)OC(=O)N1C[C@H](O)C[C@H]1c1nc(CCCc2ccccc2)no1` [Compound 3-1, 3-(3-phenylpropyl)-5-[(2S,4R)-1-tert-butoxycarbonyl-4-hydroxypyrrolidin-2-yl]-1,2,4-oxadiazole], for which the IC50 was > 50 µM.

With `CC(C)CS(=O)(=O)N1C[C@H](O)C[C@H]1c1nc(CCCc2ccccc2)no1` [Compound 3A, 3-(3-phenylpropyl)-5-[(2S,4R)-4-hydroxy-1-isobutylsulfonylpyrrolidin-2-yl]-1,2,4-oxadiazole], the IC50 was > 50 µM.

Turning to `O=S(=O)(C1CCCCC1)N1C[C@H](O)C[C@H]1c1nc(CCCc2ccccc2)no1` [Compound 3B, 3-(3-phenylpropyl)-5-[(2S,4R)-1-cyclohexylsulfonyl-4-hydroxypyrrolidin-2-yl]-1,2,4-oxadiazole], the IC50 is 10 to 50 µM.

With `CS(=O)(=O)N1C[C@H](O)C[C@H]1c1nc(CCCc2ccccc2)no1` [Compound 3C, 3-(3-phenylpropyl)-5-[(2S,4R)-4-hydroxy-1-methanesulfonylpyrrolidin-2-yl]-1,2,4-oxadiazole], the IC50 is > 50 µM.

As for `O=S(=O)(c1ccccc1)N1C[C@H](O)C[C@H]1c1nc(CCCc2ccccc2)no1` [Compound 3D, 3-(3-phenylpropyl)-5-[(2S,4R)-1-benzenesulfonyl-4-hydroxypyrrolidin-2-yl]-1,2,4-oxadiazole], the IC50 was > 50 µM.

Turning to `O=S(=O)(Cc1ccccc1)N1C[C@H](O)C[C@H]1c1nc(CCCc2ccccc2)no1` [Compound 3E, 3-(3-phenylpropyl)-5-[(2S,4R)-1-benzylsulfonyl-4-hydroxypyrrolidin-2-yl]-1,2,4-oxadiazole], the IC50 is 10 to 50 µM.

Consider `CC(C)(C)O[C@@H]1C[C@@H](c2nc(CCCc3ccccc3)no2)N(C(=O)c2ccc3cc(C(=O)N4C[C@H](OC(C)(C)C)C[C@H]4c4nc(CCCc5ccccc5)no4)ccc3c2)C1` [Compound 4-4, Naphthalene-2,6-diylbis (((2S,4R)-4-(tert-butoxy)-2-(3-(3-phenylpropyl)-1,2,4-oxadiazol-5-yl)pyrrolidin-1-yl)methanone)], for which the IC50 is > 50 µM.

In the case of `NC(=O)c1ccc2cc(C(=O)N3C[C@H](O)C[C@H]3c3nc(CCCc4ccccc4)no3)ccc2c1` [Compound 4-5], the IC50 is > 50 µM.

Turning to `O=C(c1ccc2cc(C(=O)N3C[C@H](O)C[C@H]3c3nc(CCCc4ccccc4)no3)ccc2c1)N1C[C@H](O)C[C@H]1c1nc(CCCc2ccccc2)no1` [Compound 4-6, Naphthalene-2,6-diylbis(((2S,4R)-4-hydroxy-2-(3-(3-phenylpropyl)-1,2,4-oxadiazol-5-yl)pyrrolidin-1-yl)methanone)], the IC50 was > 50 µM.

`CC(C)(C)O[C@@H]1C[C@@H](c2nc(CCCc3ccccc3)no2)N(S(=O)(=O)C2CCCCC2)C1` [Compound 4B, 3-(3-phenylpropyl)-5-[(2S,4R)-4-tert-butoxy-1-cyclohexylsulfonyl-pyrrolidin-2-yl]-1,2,4-oxadiazole]: the IC50 was < 10 µM.

The same experiment, now with this note: 72 h; Vero cells infected with human RS virus A2 strain, 3 days of incubation, RS virus RNA copy number by quantitative RT-PCR; read-out: Anti-RS virus Activity.
With `c1ccc(CCCc2noc([C@@H]3CCCCN3Cc3ccccc3)n2)cc1` [Compound 2AA, (S)-5-(1-benzylpiperidin-2-yl)-3-(3-phenylpropyl)-1,2,4-oxadiazole], the IC50 is 10 to 50 µM.

Take `c1ccc(CCCc2noc([C@@H]3CCCCN3CCc3ccccc3)n2)cc1` [Compound 2AB, (S)-5-(1-phenethylpiperidin-2-yl)-3-(3-phenylpropyl)-1,2,4-oxadiazole]: the IC50 was 10 to 50 µM.

On to `CCOC(=O)C1CCN(S(=O)(=O)N2CCCC[C@H]2c2nc(CCCc3ccccc3)no2)CC1` [Compound 2AC, Ethyl (S)-1-((2-(3-(3-phenylpropyl)-1,2,4-oxadiazol-5-yl)piperidin-1-yl)sulfonyl)piperidine-4-carboxylate], for which the IC50 lay in the range of 10 to 50 µM.

With `O=S(=O)(N1CCOCC1)N1CCCC[C@H]1c1nc(CCCc2ccccc2)no1` [Compound 2AE, (S)-4-((2-(3-(3-phenylpropyl)-1,2,4-oxadiazol-5-yl)piperidin-1-yl)sulfonyl)morpholine], the IC50 was < 10 µM.

With `O=S(=O)(N1CCCC[C@H]1c1nc(CCCc2ccccc2)no1)C12CC3CC(CC(C3)C1)C2` [Compound 2AG, 5-((S)-1-((adamantan-1-yl)sulfonyl)piperidin-2-yl)-3-(3-phenylpropyl)-1,2,4-oxadiazole], the IC50 was 10 to 50 µM.

As to `O=C(Cc1ccccc1)N1CCCC[C@H]1c1nc(CCCc2ccccc2)no1` [Compound 2P, (S)-2-Phenyl-1-(2-(3-(3-phenylpropyl)-1,2,4-oxadiazol-5-yl)piperidin-1-yl)ethan-1-one], the IC50 was < 10 µM.

Take `CC(C)CC(=O)N1CCCC[C@H]1c1nc(CCCc2ccccc2)no1` [Compound 2Q, (S)-3-Methyl-1-(2-(3-(3-phenylpropyl)-1,2,4-oxadiazol-5-yl)piperidin-1-yl)butan-1-one]: the IC50 was < 10 µM.

Regarding `CC(=O)N1CCCC[C@H]1c1nc(CCCc2ccccc2)no1` [Compound 2R], the IC50 was in the range of 10 to 50 µM.

As to `O=C(c1ccccc1)N1CCCC[C@H]1c1nc(CCCc2ccccc2)no1` [Compound 2S, (S)-Phenyl(2-(3-(3-phenylpropyl)-1,2,4-oxadiazol-5-yl)piperidin-1-yl)methanone], the IC50 is < 10 µM.

`CC(C)CCN1CCCC[C@H]1c1nc(CCCc2ccccc2)no1` [Compound 2T, (S)-5-(1-isopentylpiperidin-2-yl)-3-(3-phenylpropyl)-1,2,4-oxadiazole]: the IC50 was in the range of 10 to 50 µM.

For `c1ccc(CCCc2noc([C@@H]3CCCCN3CC3CCCCC3)n2)cc1` [Compound 2U, (S)-5-(1-(cyclohexylmethyl)piperidin-2-yl)-3-(3-phenylpropyl)-1,2,4-oxadiazole], the IC50 was < 10 µM.

In the case of `CC(C)(C)S(=O)(=O)N1CCCC[C@H]1c1nc(CCCc2ccccc2)no1` [Compound 2X, (S)-5-(1-(tert-butylsulfonyl)piperidin-2-yl)-3-(3-phenylpropyl)-1,2,4-oxadiazole], the IC50 was < 10 µM.

For `O=C(C1CCCCC1)N1CCCC[C@H]1c1nc(CCCc2ccccc2)no1` [Compound 2Y, (S)-cyclohexyl(2-(3-(3-phenylpropyl)-1,2,4-oxadiazol-5-yl)piperidin-1-yl)methanone], the IC50 is < 10 µM.

As to `CCN1CCCC[C@H]1c1nc(CCCc2ccccc2)no1` [Compound 2Z, (S)-5-(1-ethylpiperidin-2-yl)-3-(3-phenylpropyl)-1,2,4-oxadiazole], the IC50 is 10 to 50 µM.

On to `CC(C)(C)OC(=O)N1CC2(CC2)C[C@H]1c1nc(CCCc2ccccc2)no1` [Compound 5-1, 3-(3-phenylpropyl)-5-{(6S)-5-tert-butoxycarbonyl-5-azaspiro[2.4]hept-6-yl}-1,2,4-oxadiazole], for which the IC50 is < 10 µM.

As to `CC(C)CS(=O)(=O)N1CC2(CC2)C[C@H]1c1nc(CCCc2ccccc2)no1` [Compound 5A, 3-(3-phenylpropyl)-5-{(6S)-5-isobutylsulfonyl-5-azaspiro[2.4]hept-6-yl}-1,2,4-oxadiazole], the IC50 was < 10 µM.

As to `CCOC(=O)C1CCN(S(=O)(=O)N2CC3(CC3)C[C@H]2c2nc(CCCc3ccccc3)no2)CC1` [Compound 5AC, ethyl (S)-1-((6-(3-(3-phenylpropyl)-1,2,4-oxadiazole-5-yl)-5-azaspiro[2.4]heptan-5-yl)sulfonyl)piperidin-4-carboxylate], the IC50 is 10 to 50 µM.

Turning to `O=S(=O)(N1CCCCC1)N1CC2(CC2)C[C@H]1c1nc(CCCc2ccccc2)no1` [Compound 5AD, (S)-3-(3-phenylpropyl)-5-(5-(piperidin-1-ylsulfonyl)-5-azaspiro[2.4]heptan-6-yl)-1,2,4-oxadiazole], the IC50 fell in the range of 10 to 50 µM.

The experiment is the same for the next values; noted with them: Vero, 72 h, read-out: Anti-RS virus Activity.
On to `O=S(=O)(N1CCCCC1)N1CCCC[C@H]1c1nc(CCCc2ccccc2)no1` [Compound 2AD, (S)-3-(3-phenylpropyl)-5-(1-(piperidine-1-ylsulfonyl)piperidin-2-yl)-1,2,4-oxadiazole], for which the IC50 is < 10 µM.
